Experimental data reported in patent US20200345746A1, “Oxazine Derivative for Use in the Prevention of Alzheimer's Disease in at Risk Patents” (Novartis AG, priority 2016, published 2020).

Experiments:
Type in all cases: in vivo
sAPPα = assay: Triton TX-100 soluble sAPPα in APP23 mouse brain; details: APP23 mice
Method: (§1) Frozen mouse forebrains were weighed and homogenized in 9 volumes (w/v) of ice-cold TBS-Complete (20 mM Tris-HCl pH 7.4, 137 mM NaCl, 1× Complete [Protease Inhibitor Cocktail Tablets: 1 836 145, Roche Diagnostics GmbH, Penzberg, Germany]) by sonication (90% duty cycle, output control 5, 40-55 pulses, [Sonifier 450, Branson]). After homogenization several 50 μl aliquots were prepared for analysis and were stored at −80° C.
(§2) Brain homogenates were extracted with 1% Triton X-100 in buffer and the resulting supernatant was considered to represent soluble forms of APP metabolites. In addition to Aβ40 and 42, we determined the N-terminal APP fragments sAPPα (direct cleavage product of α-secretase) and sAPPβ (Swe) (direct product of BACE1 cleavage). […] Since no change in the APP expression and Aβ generation is known to happen during this age, it is assumed that the increased values in the vehicle group (18-20 mo old) arise from “leakage” out of the Aβ deposits (which increase several fold, see below).

Aβ42 = assay: Triton TX-100 soluble Aβ42 in APP23 mouse brain; details: APP23 mice
Method: as §1
Human Aβ40 and 42 in mice was determined with the Meso Scale Discovery (MSD) 96-well MULTI-ARRAY human/rodent (6E10) Aβ40/42 Assay (Meso Scale Discovery, Rockville, Md., USA). The assay was performed according to the manufacturer's instructions except for the calibration curve and the sample preparations. […]
The calibration curve was prepared in a corresponding dilution of 1% Blocker A solution spiked with synthetic Aβ1-40 peptide (1.56-100 pg/ml) except for non-transgenic mouse brain samples: In this case, the calibration curve was prepared in a correspondingly diluted APP knockout mouse forebrain spiked with synthetic Aβ1-40 peptide (1.56-100 pg/ml). […] The relative units for samples and standards were imported into SOFTmax PRO 4.0 for calculation of standard curves and quantification of samples. […]

Aβ40 = Aβ40 in APP23 mouse CSF; details: APP23 mice; for CSF Aβ40 Mean ± SEM: 6 months
Method: Mouse CSF samples (3 μl) was diluted with 57 μL 1% Blocker A (MSD) and 25 μl were applied to the assay plate.
CSF was collected from all mice at necropsy. Samples from the baseline group were stored for approximately 6 months, and analyzed together with the rest of the samples at the end of the study. […] The reason for the high baseline values is currently not known. It is hypothesized that this is an effect of long term storage, when dissociation of oligomeric forms of Aβ may lead to higher monomeric concentrations. CSF Aβ, more than Triton TX-100 solubilized Aβ from brain extracts, represents the steady-state concentration of soluble amyloid-β that directly responds to changes in Aβ generation.

sAPPβ (Swe) = assay: Triton TX-100 soluble sAPPβ (Swe) in APP23 mouse brain; details: APP23 mice
Method: as §1, §2

C[C@@]1(c2nc(NC(=O)c3ncc(C(F)(F)F)cc3Cl)ccc2F)CO[C@@](C)(C(F)(F)F)C(N)=N1 [Compound 1, N-(6-((3R,6R)-5-amino-3,6-dimethyl-6-(trifluoromethyl)-3,6-dihydro-2H-1,4-oxazin-3-yl)-5-fluoropyridin-2-yl)-3-chloro-5-(trifluoromethyl)picolinamide]
sAPPα change vs vehicle (sAPPα; 0.03 g/kg vs vehicle): +44% | increase in sAPPα (sAPPα; 0.3 g/kg dose): 3 fold | sAPPα change vs vehicle (sAPPα; 0.3 g/kg vs vehicle): +279.8% | Aβ42 change vs vehicle (Triton TX-100 soluble, brain) (Aβ42; 0.03 g/kg vs vehicle): −20.1% | Aβ42 change vs vehicle (Triton TX-100 soluble, brain) (Aβ42; 0.3 g/kg vs vehicle): −77.3% | CSF Aβ40 Change vs vehicle (Aβ40; 0.03 g/kg food): −8.6% | CSF Aβ40 Mean ± SEM (Aβ40; 0.03 g/kg food): 31.2 ± 2.11 ng/mL | CSF Aβ40 Change vs vehicle (Aβ40; 0.3 g/kg food): −54.3% | CSF Aβ40 Mean ± SEM (Aβ40; 0.3 g/kg food): 15.6 ± 1.8 ng/mL | sAPPβ (Swedish) change vs vehicle (sAPPβ (Swe); 0.03 g/kg vs vehicle): −29.0% | sAPPβ (Swedish) change vs vehicle (sAPPβ (Swe); 0.3 g/kg vs vehicle): −77.7% | reduction of soluble APP (Swe) (sAPPβ (Swe); low dose 0.03 g/kg food): 29%
